{
  "source": "patent US9636021B2",
  "about": "“Flavonoid compounds of low toxicity for biological imaging applications” (The University of Akron, priority 2014, dated 2017)",
  "key": {"dye-BSA complexes": {"biological_target": "dye-BSA complexes (Bos taurus, UniProt P02769)", "sequence (P02769 25-607, one chain of several)": "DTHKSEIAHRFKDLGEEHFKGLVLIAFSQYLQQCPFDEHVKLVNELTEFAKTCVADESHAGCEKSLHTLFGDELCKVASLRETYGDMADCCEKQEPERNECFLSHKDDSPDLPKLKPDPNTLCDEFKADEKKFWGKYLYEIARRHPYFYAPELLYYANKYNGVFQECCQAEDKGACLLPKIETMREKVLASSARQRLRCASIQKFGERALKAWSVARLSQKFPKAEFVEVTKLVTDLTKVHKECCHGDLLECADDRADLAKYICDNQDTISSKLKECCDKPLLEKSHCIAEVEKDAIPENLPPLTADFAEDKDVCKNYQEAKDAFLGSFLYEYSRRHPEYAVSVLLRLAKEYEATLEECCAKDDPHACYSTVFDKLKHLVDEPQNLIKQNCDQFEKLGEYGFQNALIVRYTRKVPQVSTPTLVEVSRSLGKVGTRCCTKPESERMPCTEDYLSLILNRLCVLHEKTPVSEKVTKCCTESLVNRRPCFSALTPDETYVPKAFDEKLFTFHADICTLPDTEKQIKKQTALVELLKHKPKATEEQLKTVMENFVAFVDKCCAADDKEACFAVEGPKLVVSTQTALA", "assay": "photostability of dye-BSA complexes under continuous UV irradiation", "assay_type": "physicochemical, bovine", "settings": "365 nm, 500 μW/cm2, 10 μM dye, 1.0 mg/mL BSA", "description": "The photostability of flavone dyes 1-6 in the presence of BSA was also examined to evaluate the application for long-term imaging. The dye-BSA complexes (10 μM of compounds 1-6, 1.0 mg/mL of BSA in 10 mM PBS buffer containing 0.5% DMSO, pH=7.4) were placed in cuvette cells, then were continuously irradiated under a hand-held UV lamp (λ=365 nm, 500 μW/cm2)."}, "[1]": {"assay": "absorbance and fluorescence spectra in DMSO", "assay_type": "physicochemical", "from_the_text": "The absorbance and fluorescence spectra of compounds 1-6 in dimethyl sulfoxide (DMSO) were investigated and the results are in Table 1."}, "[2]": {"biological_target": "bovine serum albumin (BSA) (Bos taurus, UniProt P02769)", "sequence (P02769 25-607)": "as the sequence (P02769 25-607, one chain of several) above", "assay": "fluorescence turn-on with BSA in PBS buffer", "assay_type": "binding", "settings": "for detection limit (10% increase in fluorescence emission) / visual recognizable detection limit (S/N above 3:1): BSA; for F(+)/F(−) fluorescence intensity with BSA / without BSA: BSA 1.0 mg/ml; for F(+)/F(−) fluorescence intensity with BSA / without BSA / λabs(+) / λem(+) / λabs(−) / λem(−): 10 μM dye; for F(+)/F(−) fluorescence intensity with BSA / without BSA / λabs(+) / λem(+) / λabs(−) / λem(−) / fluorescence in the absence of BSA: 10 mM PBS, 0.5% DMSO, pH 7.4; for λabs(+) / λem(+): with BSA 1.0 mg/ml; for λabs(−) / λem(−): without BSA; for fluorescence in the absence of BSA: aqueous buffer", "description": "In the aqueous buffer (0.5% DMSO, 10 mM of PBS, pH=7.4), the BSA binding-induced fluorescence turn-on was so large that it could be easily seen by naked eye. […] The intramolecular charge transfer along the D-A conjugated backbone plays a very important role in the environment-sensitivity of the flavone. All the evidence consistently pointed to the flavone dye entering the hydrophobic site of BSA.\nGenerally, the detection limit can be defined as the analyte concentration at which a 10% increase in fluorescence emission can be measured.\nTherefore, the detection limits of compounds 1-6 were 2.6, 0.14, 0.59, 0.09, 14, and 3.4 μg/mL, respectively. For Off/On type fluorescent sensor, the Signal-to-Noise (S/N) ratio above 3:1 is considered reliable for visual evaluation. The visual recognizable detection limits of compounds 1-6 were calculated as 78, 4.2, 17.7, 2.7, 420, and 102 μg/mL, respectively. The reference range for serum albumin concentration in human blood plasma is approximately 35-50 mg/mL. Even in fish, the concentration of serum albumins can reach 0.5-5 mg/mL. The detection limits of the compounds were much lower than serum albumin concentration, indicating the capability for actual blood sample testing."}},
  "data": [
    {"compound": "CC(=O)Nc1ccc(-c2oc3ccccc3c(=O)c2O)cc1", "note": "[compound 5, N-(4-(3-hydroxy-4-oxo-4H-chromen-2-yl)phenyl)acetamide]", "values": [
      {"measurement": "photostability under UV irradiation", "setting": "dye-BSA complexes", "result": "fluorescence quenching"},
      {"measurement": "Φ", "setting": "[1]", "result": 5.4, "unit": "%"},
      {"measurement": "λabs", "setting": "[1]", "result": 363, "unit": "nm"},
      {"measurement": "λem", "setting": "[1]", "result": 505, "unit": "nm"},
      {"measurement": "detection limit (10% increase in fluorescence emission)", "setting": "[2]", "result": 14, "unit": "µg/mL"},
      {"measurement": "visual recognizable detection limit (S/N above 3:1)", "setting": "[2]", "result": 420, "unit": "µg/mL"},
      {"measurement": "F(+)/F(−) fluorescence intensity with BSA / without BSA", "setting": "[2]", "result": 7.0},
      {"measurement": "λabs(+)", "setting": "[2]", "result": 365, "unit": "nm"},
      {"measurement": "λem(+)", "setting": "[2]", "result": 514, "unit": "nm"},
      {"measurement": "λabs(−)", "setting": "[2]", "result": 357, "unit": "nm"},
      {"measurement": "λem(−)", "setting": "[2]", "result": 452, "unit": "nm"}
    ]},
    {"compound": "Cc1ccc2oc(-c3ccc(N(C)C)cc3)c(O)c(=O)c2c1", "note": "[compound 3, 2-(4-(dimethylamino)phenyl)-3-hydroxy-6-methyl-4H-chromen-4-one]", "values": [
      {"measurement": "Φ", "setting": "[1]", "result": 11.0, "unit": "%"},
      {"measurement": "λabs", "setting": "[1]", "result": 404, "unit": "nm"},
      {"measurement": "detection limit (10% increase in fluorescence emission)", "setting": "[2]", "result": 0.59, "unit": "µg/mL"},
      {"measurement": "visual recognizable detection limit (S/N above 3:1)", "setting": "[2]", "result": 17.7, "unit": "µg/mL"},
      {"measurement": "F(+)/F(−) fluorescence intensity with BSA / without BSA", "setting": "[2]", "result": 170},
      {"measurement": "fluorescence in the absence of BSA", "setting": "[2]", "result": "almost no fluorescence"},
      {"measurement": "λabs(+)", "setting": "[2]", "result": 409, "unit": "nm"},
      {"measurement": "λem(+)", "setting": "[2]", "result": 552, "unit": "nm"},
      {"measurement": "λabs(−)", "setting": "[2]", "result": 400, "unit": "nm"},
      {"measurement": "λem(−)", "setting": "[2]", "result": 582, "unit": "nm"}
    ]},
    {"compound": "CCOCc1ccc2oc(-c3ccc(N(C)C)cc3)c(O)c(=O)c2c1", "note": "[compound 2, 2-(4-(dimethylamino)phenyl)-6-(ethoxymethyl)-3-hydroxy-4H-chromen-4-one]", "values": [
      {"measurement": "Φ", "setting": "[1]", "result": 14.1, "unit": "%"},
      {"measurement": "λabs", "setting": "[1]", "result": 403, "unit": "nm"},
      {"measurement": "detection limit (10% increase in fluorescence emission)", "setting": "[2]", "result": 0.14, "unit": "µg/mL"},
      {"measurement": "visual recognizable detection limit (S/N above 3:1)", "setting": "[2]", "result": 4.2, "unit": "µg/mL"},
      {"measurement": "F(+)/F(−) fluorescence intensity with BSA / without BSA", "setting": "[2]", "result": 740},
      {"measurement": "fluorescence in the absence of BSA", "setting": "[2]", "result": "almost no fluorescence"},
      {"measurement": "λabs(+)", "setting": "[2]", "result": 415, "unit": "nm"},
      {"measurement": "λem(+)", "setting": "[2]", "result": 506, "unit": "nm"},
      {"measurement": "λabs(−)", "setting": "[2]", "result": 410, "unit": "nm"},
      {"measurement": "λem(−)", "setting": "[2]", "result": 555, "unit": "nm"}
    ]},
    {"compound": "Nc1ccc(-c2oc3ccccc3c(=O)c2O)cc1", "note": "[compound 6, 2-(4-aminophenyl)-3-hydroxy-4H-chromen-4-one]", "values": [
      {"measurement": "photostability under UV irradiation", "setting": "dye-BSA complexes", "result": "fluorescence quenching"},
      {"measurement": "Φ", "setting": "[1]", "result": 7.2, "unit": "%"},
      {"measurement": "λabs", "setting": "[1]", "result": 394, "unit": "nm"},
      {"measurement": "detection limit (10% increase in fluorescence emission)", "setting": "[2]", "result": 3.4, "unit": "µg/mL"},
      {"measurement": "visual recognizable detection limit (S/N above 3:1)", "setting": "[2]", "result": 102, "unit": "µg/mL"},
      {"measurement": "F(+)/F(−) fluorescence intensity with BSA / without BSA", "setting": "[2]", "result": 29},
      {"measurement": "λabs(+)", "setting": "[2]", "result": 386, "unit": "nm"},
      {"measurement": "λem(+)", "setting": "[2]", "result": 512, "unit": "nm"},
      {"measurement": "λabs(−)", "setting": "[2]", "result": 373, "unit": "nm"},
      {"measurement": "λem(−)", "setting": "[2]", "result": 522, "unit": "nm"}
    ]}
  ]
}
